Reference: article PMC9739695, “Water-Soluble Salts Based on Benzofuroxan Derivatives—Synthesis and Biological Activity” (International Journal of Molecular Sciences, 2022)
Read-outs that look alike come from different tables or passages of the source.

What was measured:
alfalfa seeds = test: Pre-sowing seed treatment, sowing qualities of alfalfa seeds; assay type: in vivo; conditions: control 76
Protocol: (§1) When evaluating the effectiveness of treatment of wheat, alfalfa, barley, rice, and sorghum seeds as fungicidal and bactericidal agents with preparation compounds at concentrations of 10, 20, and 40 mmol, their effect on the suppression of seed infection was evaluated.
(§2) […] The sowing qualities were evaluated (germination energy for 3–4 days, laboratory germination for 7–8 days) according to GOST 12038-84 [60]. Sowing qualities of seeds were determined in wet chambers. According to the sample, 50 seeds were taken in 4-fold repetition.

barley seeds = test: Pre-sowing seed treatment, sowing qualities of barley seeds; assay type: in vivo; conditions: for germination energy / laboratory germination: control 95.2
Protocol: as §1, §2

rice seeds = test: Pre-sowing seed treatment, sowing qualities of rice seeds; assay type: in vivo; conditions: for germination energy: control 71.4; for laboratory germination: control 95.2
Protocol: as §1, §2

sorghum seeds = test: Pre-sowing seed treatment, sowing qualities of sorghum seeds; assay type: in vivo; conditions: for germination energy: control 52.3; for laboratory germination: control 57
Protocol: as §1, §2

[1] = tested on: Hek 293 (human embryonic kidneys); test: Cell viability, MTT test, normal cell line; assay type: cell-based; conditions: read-out: IC50 (concentration causing 50% inhibition of cell population growth)
Protocol: In this work, the cytotoxic potential of the water-soluble salts based on benzofuroxan was determined by the effect of compounds on the survival of the cell tumor origin cultures (SH-SY5Y, Hep2, A549, HeLa) using the MTT test. To understand how the synthesized compounds can influence the healthy microenvironment in the body, the effect of substances on the viability of a normal Hek 293 cell culture was additionally evaluated.
Human cell cultures of tumor origin—SH-SY5Y (neuroblastoma), HeLa (cervical tumor), Hep-2 (larynx carcinoma), A549 (adenocarcinomic human alveolar basal epithelial cells)—and normal cell line Hek 293 (human embryonic kidneys), provided by the Laboratory of Tumor Cell Genetics of the Scientific Research Institute of Carcinogenesis, N.N. Blokhin National Medical Research Center of Oncology, as well as the Institute of Cytology of the Russian Academy of Sciences, were grown in a nutrient medium DMEM (PanEco, Moscow, Russia) and MEM (PanEco, Moscow, Russia), containing fetal bovine serum (10% by volume) (ThermoFisher Scientific, Paisley, UK), Glutamax (2 mM) (Gibco, Scotland, UK), and penicillin-streptomycin (1% by volume) (PanEco, Moscow, Russia). The cultivation was carried out at 37 °C in a humidified CO2 atmosphere (5%).
Cell viability was determined by MTT test. Cells were seeded in a 96-well plate in the amount of 1 × 10^4 cells/200µLof complete nutrient medium and cultured at 37 °C in CO2 (5%). After 24 h of incubation, various concentrations of test compounds in the range from 0.1 to 100 μM, were added to the cell cultures, and then the cells were cultured under the same conditions for 24 and 72 h. For each concentration, the experiment was carried out in triplicate.
All compounds were dissolved in DMSO, then diluted with the medium to the required concentration. […] The DMSO was also added to the control wells in a volume of 1%. After the incubation time, MTT (3-(4,5-dimethylthiazol-2-yl)-2,5-diphenyltetrazolium bromide, 5 mg/mL) was added to each well and plates were additionally incubated for 2 h (until the characteristic color appeared).
Using a plate analyzer (Cytation3, BioTech Instruments Inc., Winooski, VT, USA), the optical density was determined at 530 nm. The concentration value causing 50% inhibition of cell population growth (IC50) was determined from dose-dependent curves.

[2] = Acute toxicity, single intraperitoneal administration; assay type: in vivo; conditions: male, BDF1 [DBA2 × C57Bl6] hybrid, mouse, in vivo, ip, BDF1 mice, single intraperitoneal administration
Protocol: (§3) To determine LD50, a curve of increasing toxicity was built with increasing dose, based on which the following parameters were additionally determined: MTD, LD16, LD84 and LD100.
(§4) In the experiment, clinically healthy animals were used, which were kept in the same conditions with a 12-h light and free access to water and food. Each experimental group included six animals. […] Control animals received 0.9% NaCl solution. Animals were monitored continuously for 4 h on the first day after administration of the test compounds. […] Calculation of toxic doses was performed using probit analysis.

BDF1 mice = test: as above; assay type: in vivo
Protocol: as §3, §4

[3] = single intraperitoneal administration, doses given in mg/kg, probit analysis

## O=[N+]([O-])c1c(Cl)cc2c(no[n+]2[O-])c1NCCCN1CCOCC1 [4e, 6-chloro-4-(3-(morpholino-4-ium)propylamino)-5-nitrobenzo[c][1,2,5]oxadiazole 1-oxide chloride]
Alfalfa seeds; 10 mmol
  germination energy: 46.6%
  laboratory germination: 46.6%
Alfalfa seeds; 20 mmol
  germination energy: 78.5%
  laboratory germination: 79.5%
Alfalfa seeds; 40 mmol
  germination energy: 73%
  laboratory germination: 74%
Barley seeds; 10 mmol
  germination energy: 85.7%
  laboratory germination: 85.7%
Barley seeds; 20 mmol
  sowing qualities of seeds compared with control: higher than control
  germination energy: 96%
  laboratory germination: 98%
Barley seeds; 40 mmol
  germination energy: 94%
  laboratory germination: 99%
Rice seeds; 10 mmol
  germination energy: 38%
  laboratory germination: 38%
Rice seeds; 20 mmol
  sowing qualities of seeds compared with control: better results than the control
  germination energy: 98.5%
  laboratory germination: 99%
Rice seeds; 40 mmol
  sowing qualities of seeds compared with control: better results than the control
  germination energy: 99%
  laboratory germination: 99%
Sorghum seeds; 10 mmol
  germination energy: 33.3%
  laboratory germination: 63.3%
Sorghum seeds; 20 mmol
  germination energy: 50.5%
  laboratory germination: 56%
Sorghum seeds; 40 mmol
  germination energy: 50.5%
  laboratory germination: 52.5%
[1]; HEK293, 24 h
  IC50: 99 ± 2.09 µM
[1]; HEK293, 72 h
  IC50: 86.5 ± 5.75 µM
[2]; doses given in mg/kg
  MTD at 14 days: 10 mg/kg
[2]; probit analysis
  LD50 at 14 days: 22 ± 1.33 mg/kg
BDF1 mice; single i.p.
  toxicity class from acute toxicity study: highly toxic
BDF1 mice; single i.p. 10 mg/kg, 0 Day, control 21.55 ± 0.28
  Body Weight: 20.25 ± 0.39 g
BDF1 mice; single i.p. 10 mg/kg, 1 Day, control 21.43 ± 0.56
  Body Weight: 20.39 ± 0.47 g
BDF1 mice; single i.p. 10 mg/kg, 2 Days, control 21.67 ± 0.77
  Body Weight: 20.51 ± 0.40 g
BDF1 mice; single i.p. 10 mg/kg, 3 Days, control 21.99 ± 0.79
  Body Weight: 20.88 ± 0.31 g
BDF1 mice; single i.p. 10 mg/kg, 7 Days, control 22.80 ± 0.44
  Body Weight: 21.58 ± 0.51 g
BDF1 mice; single i.p. 10 mg/kg, 14 Days, control 23.96 ± 0.68
  Body Weight: 22.12 ± 0.62 g
BDF1 mice; single i.p. 15 mg/kg, 0 Day, control 21.55 ± 0.28
  Body Weight: 21.48 ± 0.47 g
BDF1 mice; single i.p. 15 mg/kg, 1 Day, control 21.43 ± 0.56
  Body Weight: 21.45 ± 0.51 g
BDF1 mice; single i.p. 15 mg/kg, 2 Days, control 21.67 ± 0.77
  Body Weight: 21.56 ± 0.49 g
BDF1 mice; single i.p. 15 mg/kg, 3 Days, control 21.99 ± 0.79
  Body Weight: 21.62 ± 0.59 g
BDF1 mice; single i.p. 15 mg/kg, 7 Days, control 22.80 ± 0.44
  Body Weight: 22.02 ± 0.47 g
BDF1 mice; single i.p. 15 mg/kg, 14 Days, control 23.96 ± 0.68
  Body Weight: 22.66 ± 0.38 g
BDF1 mice; single i.p. 20 mg/kg, 0 Day, control 21.55 ± 0.28
  Body Weight: 21.45 ± 0.52 g
BDF1 mice; single i.p. 20 mg/kg, 1 Day, control 21.43 ± 0.56
  Body Weight: 21.44 ± 0.71 g
BDF1 mice; single i.p. 20 mg/kg, 2 Days, control 21.67 ± 0.77
  Body Weight: 21.88 ± 0.81 g
BDF1 mice; single i.p. 20 mg/kg, 3 Days, control 21.99 ± 0.79
  Body Weight: 22.02 ± 0.74 g
BDF1 mice; single i.p. 20 mg/kg, 7 Days, control 22.80 ± 0.44
  Body Weight: 22.74 ± 0.58 g
BDF1 mice; single i.p. 20 mg/kg, 14 Days, control 23.96 ± 0.68
  Body Weight: 23.01 ± 0.65 g
BDF1 mice; single i.p. 25 mg/kg, 0 Day, control 21.55 ± 0.28
  Body Weight: 22.27 ± 0.29 g
BDF1 mice; single i.p. 25 mg/kg, 1 Day, control 21.43 ± 0.56
  Body Weight: 21.98 g
BDF1 mice; single i.p. 25 mg/kg, 2 Days, control 21.67 ± 0.77
  Body Weight: 21.81 g
BDF1 mice; single i.p. 25 mg/kg, 3 Days, control 21.99 ± 0.79
  Body Weight: 21.89 g
BDF1 mice; single i.p. 25 mg/kg, 7 Days, control 22.80 ± 0.44
  Body Weight: 22.15 g
BDF1 mice; single i.p. 25 mg/kg, 14 Days, control 23.96 ± 0.68
  Body Weight: 22.74 g
BDF1 mice; single i.p. 30 mg/kg, 0 Day, control 21.55 ± 0.28
  Body Weight: 21.92 ± 0.13 g
BDF1 mice; single i.p., doses of 15–30 mg/kg
  time after administration at which death of animals began: 5 to 30 min
BDF1 mice; single intraperitoneal administration, doses given in mg/kg
  LD100: 30
BDF1 mice; [3]
  LD16: 18.2
  LD84: 24.6
